According to US20100160369A1, “S1P1 Agonists and Methods of Making And Using” (EXELIXIS, INC., priority 2008, published 2010):

Assays:
Type in all cases: cell-based
[1] = biological target: T1, S1P1 (Homo sapiens, UniProt P21453); assay: Tango β-arrestin Recruitment Assay in U2OS cells (Assay 2b); set-up: linker with TEV protease (N1a) cleavage site (C); details: Tango β-arrestin Recruitment Assay, read-out: Assay 2b EC50
From the text: (§1) For the Tango™ β-arrestin recruitment assay, the cytoplasmic C-terminus of S1P1 is tethered to the tTA transcriptional activator with a linker that contains a cleavage site for the N1a protease from tobacco etch virus (TEV protease). The C-terminus of the human β-arrestin2 protein is fused to TEV protease. Binding of an agonist recruits the β-arrestin-TEV fusion protein to the receptor resulting in cleavage of the linker and release of tTA to enter the nucleus and subsequently activate a tTA-dependent luciferase reporter gene.
Alternatively, U2OS cells expressing the reporter gene and S1P1 (Invitrogen) were added to the wells of a 384-well white opaque bottom assay plate (PerkinElmer) at […] per well. The cells were serum starved for 48 h in Freestyle medium (Invitrogen). Test compounds were tested at maximum concentrations of 1 μM for the agonist assay. Compounds were diluted in DMSO (10 concentration points, 3-fold each) and added to the assay plate at a 1% final DMSO concentration. The efficacy control was 1 μM S1P (Avanti). For each compound, there were duplicate assay plates and each assay plate had duplicate wells per concentration point. The plate was incubated overnight at 37° C. The GeneBLAzer β-lactamase assay reagent (Invitrogen) was added and the plates were incubated for an additional 2 h at room temperature. Fluorescence was measured using an EnVision plate reader (PerkinElmer, Waltham, Mass.) at an excitation wavelength of 409 nm and emission wavelengths of 460 nm and 530 nm. The emission intensity at each wavelength was background subtracted against wells containing medium only and the F460 nm/F530 nm ratio determined for each concentration of the test compounds. Percent activity was calculated as [(test compound ratio−DMSO ratio)/(positive control ratio−DMSO ratio)*100], where the positive control and DMSO ratios are from cells incubated with the efficacy control 1 μM S1P and 1% DMSO, respectively. The percent activities were plotted against compound concentration to determine EC50 using XLFit (IDBS).
(§2) Assay 1 is the CNG cAMP Assay as described in Biological Example 1. Assay 2a and 2b are the Tango™ β-arrestin Recruitment Assay in HEK293 and U2OS cells, respectively, as described in Biological Example 2. Assay 3a is the hS1P1R GTPγS Binding Assay as described in Biological Example 3. Assay 3b is the GTP-Eu Binding Assay as described in Biological Example 3. EC50's were measured unless otherwise noted. […] In the table, “nt” means the Compound was not tested and “no” means the compound was tested but had no measurable activity under the assay conditions employed.
Target sequence in this assay (P21453 whole entry, the tested form may be a part): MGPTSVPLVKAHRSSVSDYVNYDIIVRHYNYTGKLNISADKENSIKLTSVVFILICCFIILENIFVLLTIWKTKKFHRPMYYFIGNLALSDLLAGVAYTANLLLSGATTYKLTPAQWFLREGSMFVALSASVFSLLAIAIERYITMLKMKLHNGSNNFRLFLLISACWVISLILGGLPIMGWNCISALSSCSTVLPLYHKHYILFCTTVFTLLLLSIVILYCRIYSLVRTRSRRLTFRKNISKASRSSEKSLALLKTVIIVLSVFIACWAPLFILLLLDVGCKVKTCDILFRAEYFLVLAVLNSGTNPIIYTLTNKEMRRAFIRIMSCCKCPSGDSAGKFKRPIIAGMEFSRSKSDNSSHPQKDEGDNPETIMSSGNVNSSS
Target sequence in this assay (P32121 whole entry partner, the tested form may be a part): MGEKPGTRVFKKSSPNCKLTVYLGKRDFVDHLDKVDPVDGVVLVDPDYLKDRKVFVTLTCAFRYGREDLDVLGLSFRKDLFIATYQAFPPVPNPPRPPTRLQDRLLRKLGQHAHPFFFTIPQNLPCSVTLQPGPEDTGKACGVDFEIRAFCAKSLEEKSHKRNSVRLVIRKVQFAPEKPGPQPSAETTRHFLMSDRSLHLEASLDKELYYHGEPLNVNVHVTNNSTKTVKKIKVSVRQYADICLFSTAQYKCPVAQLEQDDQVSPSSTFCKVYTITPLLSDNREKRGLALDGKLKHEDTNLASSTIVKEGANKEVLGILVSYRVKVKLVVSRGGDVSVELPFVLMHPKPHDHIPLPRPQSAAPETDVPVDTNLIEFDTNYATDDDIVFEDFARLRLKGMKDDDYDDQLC

[2] = biological target: T1, S1P1; assay: CNG cAMP Assay (Assay 1); set-up: host or cells: HEK293 cells expressing the CNG channel; details: read-out: Assay 1 EC50
Summary of the method: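 HEK293 cells expressing CNG channel and S1P1, membrane-potential dye loaded; compounds (top 10 μM, 10-point 3-fold, 1.8% DMSO) added with 25 μM Ro 20-1724, 500 nM NECA and 10 nM S1P for 90 min. T90/T0 fluorescence (Ex 350/Em 590 nm) normalised to NECA-alone vs DMSO; EC50 fitted.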
Target sequence in this assay (P21453 whole entry, the tested form may be a part): as the sequence (P21453 whole entry, the tested form may be a part) above

[3] = biological target: T1, S1P1; assay: Tango β-arrestin Recruitment Assay in HEK293 cells (Assay 2a); set-up: linker with TEV protease (N1a) cleavage site (C); host or cells: HEK293, transiently transfected; details: Tango β-arrestin Recruitment Assay, read-out: Assay 2a EC50
From the text: as §1
Target sequence in this assay (P21453 whole entry, the tested form may be a part): as above
Target sequence in this assay (P32121 whole entry partner, the tested form may be a part): as the sequence (P32121 whole entry partner, the tested form may be a part) above
Frozen HEK293 cells transiently transfected with receptor cDNAs for S1P1 (Invitrogen) were thawed and suspended in 10 mL of Pro293a-CDM culture medium (Invitrogen) supplemented with 4 mM L-Glutamine (Invitrogen), 1× Pen/Strep (100 units/mL penicillin and 100 μg/mL streptomycin, Invitrogen) and 0.1% fatty acid free BSA (Sigma-Aldrich). Cells were added to the wells of a 384-well white opaque bottom assay plate (PerkinElmer) at 3,000-6,000 cells per well and the plate was incubated for approximately 4 h in a 37° C. incubator. Test compounds were tested at maximum concentrations of 10 μM for the agonist assays. Compounds were diluted in DMSO (10 concentration points, 3-fold each) and added to the assay plate at a 1% final DMSO concentration. For each compound, there were duplicate assay plates and each assay plate had duplicate wells per concentration point. The plate was incubated at 37° C. for 30 min. The efficacy control was 5 μM S1P (Avanti). Following agonist addition, the assay plates were incubated in a 37° C. incubator for 16-18 h. Luciferase assay reagent was added and luminescence measured in an EnVision plate reader (PerkinElmer). To determine agonist activity, percent activity was calculated as [(test compound−background)/(positive control−background)* 100], where background is the luminescence of the DMSO alone control and the positive control is the luminescence from cells incubated with the efficacy control 5 μM S1P. The percent activities were plotted against compound concentration to determine EC50 using XLFit (IDBS).
as §2

Compound | EC50 [1] [µM] | EC50 [2] [µM] | EC50 [3] [µM]
CC1(C)OC[C@@H](COc2cc(Cl)c(-c3noc(-c4cn5cc(C(F)(F)F)cc(Cl)c5n4)n3)cc2Cl)O1 [Example 304, 8-chloro-2-{3-[2,5-dichloro-4-({[(4R)-2,2-dimethyl-1,3-dioxolan-4-yl]methyl}oxy)phenyl]-1,2,4-oxadiazol-5-yl}-6-(trifluoromethyl)imidazo[1,2-a]pyridine] | ≤ 0.1 | – | –
COc1ccc2nc(-c3nnc(-c4cc(F)c(OCC(N)CO)cc4Cl)s3)cn2c1 (centres unmarked) [Entry 45] | ≤ 0.1 | – | –
N[C@H](CO)COc1cc(Cl)c(-c2nnc(-c3cn4cc(C(F)(F)F)ccc4n3)s2)cc1F [Entry 43] | ≤ 0.1 | – | –
CC(O)CCc1cc(Cl)c(-c2noc(-c3cn4cc(C(F)(F)F)cc(Cl)c4n3)n2)cc1Cl (centres unmarked) [Example 185, 4-(2,5-dichloro-4-{5-[8-chloro-6-(trifluoromethyl)imidazo[1,2-a]pyridin-2-yl]-1,2,4-oxadiazol-3-yl}phenyl)butan-2-ol] | ≤ 0.1 | – | –
CS(=O)(=O)NCc1ccc(-c2noc(-c3cn4cc(C(F)(F)F)cc(Cl)c4n3)n2)c(Cl)c1 [Example 136, N-[(3-chloro-4-{5-[8-chloro-6-(trifluoromethyl)imidazo[1,2-a]pyridin-2-yl]-1,2,4-oxadiazol-3-yl}phenyl)methyl]methanesulfonamide] | – | ≤ 0.1 | ≤ 0.1
Cc1cc(CC(C)C(=O)O)ccc1-c1noc(-c2cn3cc(C(F)(F)F)cc(Cl)c3n2)n1 (centres unmarked) [Example 180, 3-(4-{5-[8-chloro-6-(trifluoromethyl)imidazo[1,2-a]pyridin-2-yl]-1,2,4-oxadiazol-3-yl}-3-methylphenyl)-2-methylpropanoic acid] | – | ≤ 0.1 | 0.1 to 0.5
Cc1cc(Br)c2nc(-c3nc(-c4cc(F)c(CCC(=O)O)cc4Cl)no3)cn2c1 [Entry 25] | – | ≤ 0.1 | ≤ 0.1
FC(F)(F)c1cc(Br)c2nc(-c3nc(-c4ccccc4Cl)no3)cn2c1 [Example 159, 8-bromo-2-[3-(2-chlorophenyl)-1,2,4-oxadiazol-5-yl]-6-(trifluoromethyl)imidazo[1,2-a]pyridine] | – | ≤ 0.1 | 0.1 to 0.5
O=C(O)CCc1cc(Cl)c(-c2noc(-c3cn4cc(Br)cc(Cl)c4n3)n2)cc1F [Entry 64] | – | ≤ 0.1 | ≤ 0.1
O=C(O)CCc1ccc(-c2nc(-c3cn4cc(C(F)(F)F)cc(Cl)c4n3)no2)cc1Cl [Example 235, 3-(2-chloro-4-{3-[8-chloro-6-(trifluoromethyl)imidazo[1,2-a]pyridin-2-yl]-1,2,4-oxadiazol-5-yl}phenyl)propanoic acid] | – | ≤ 0.1 | 0.1 to 0.5
O=C(O)CN1CCC(Oc2cc(Cl)c(-c3noc(-c4cn5cc(C(F)(F)F)cc(Cl)c5n4)n3)cc2F)C1 (centres unmarked) [Example 92, {3-[(5-chloro-4-{5-[8-chloro-6-(trifluoromethyl)imidazo[1,2-a]pyridin-2-yl]-1,2,4-oxadiazol-3-yl}-2-fluorophenyl)oxy]pyrrolidin-1-yl}acetic acid] | – | ≤ 0.1 | ≤ 0.1
Cc1cc(NS(C)(=O)=O)ccc1-c1noc(-c2cn3cc(C(F)(F)F)cc(Cl)c3n2)n1 [Example 98, N-(4-{5-[8-chloro-6-(trifluoromethyl)imidazo[1,2-a]pyridin-2-yl]-1,2,4-oxadiazol-3-yl}-3-methylphenyl)methanesulfonamide] | – | ≤ 0.1 | ≤ 0.1
NCC(O)COc1cc(Cl)c(-c2noc(-c3cn4cc(C(F)(F)F)cc(Cl)c4n3)n2)cc1F (centres unmarked) [Example 216, 1-amino-3-[(5-chloro-4-{5-[8-chloro-6-(trifluoromethyl)imidazo[1,2-a]pyridin-2-yl]-1,2,4-oxadiazol-3-yl}-2-fluorophenyl)oxy]propan-2-ol] | – | ≤ 0.1 | ≤ 0.1
O=C(O)/C=C/c1ccc(-c2noc(-c3cn4cc(C(F)(F)F)cc(Cl)c4n3)n2)c(Cl)c1 [Entry 3] | – | ≤ 0.1 | 0.1 to 0.5
NC(=O)CCc1ccc(-c2noc(-c3cn4cc(C(F)(F)F)cc(Cl)c4n3)n2)c(Cl)c1 [Entry 20] | – | ≤ 0.1 | ≤ 0.1
O=C(O)CCOc1ccc(-c2noc(-c3cn4cc(C(F)(F)F)cc(Cl)c4n3)n2)c(Cl)c1 [Example 255, 3-[(3-chloro-4-{5-[8-chloro-6-(trifluoromethyl)imidazo[1,2-a]pyridin-2-yl]-1,2,4-oxadiazol-3-yl}phenyl)oxy]propanoic acid] | – | ≤ 0.1 | 0.1 to 0.5
Cc1ccccc1-c1noc(-c2cn3cc(C(F)(F)F)cc(Cl)c3n2)n1 [Example 150, 8-chloro-2-[3-(2-methylphenyl)-1,2,4-oxadiazol-5-yl]-6-(trifluoromethyl)imidazo[1,2-a]pyridine] | – | ≤ 0.1 | 0.1 to 0.5
Cc1cc(C#N)c2nc(-c3nc(-c4cc(F)c(CCC(=O)O)cc4Cl)no3)cn2c1 [Example 160, 3-{5-chloro-4-[5-(8-cyano-6-methylimidazo[1,2-a]pyridin-2-yl)-1,2,4-oxadiazol-3-yl]-2-fluorophenyl}propanoic acid] | – | ≤ 0.1 | 0.1 to 0.5
CC(Cc1ccc(-c2noc(-c3cn4cc(C(F)(F)F)cc(Cl)c4n3)n2)c(Cl)c1)C(=O)O (centres unmarked) [Example 171, 3-(3-chloro-4-{5-[8-chloro-6-(trifluoromethyl)imidazo[1,2-a]pyridin-2-yl]-1,2,4-oxadiazol-3-yl}phenyl)-2-methylpropanoic acid] | – | ≤ 0.1 | 0.1 to 0.5
O=C(O)CCc1ccc(-c2noc(-c3cn4cc(C(F)(F)F)cc(Cl)c4n3)n2)c(F)c1 [Entry 19] | – | ≤ 0.1 | 0.1 to 0.5
Fc1cccc(F)c1-c1noc(-c2cn3cc(C(F)(F)F)cc(Cl)c3n2)n1 [Example 141, 8-chloro-2-[3-(2,6-difluorophenyl)-1,2,4-oxadiazol-5-yl]-6-(trifluoromethyl)imidazo[1,2-a]pyridine] | – | 0.5 to 1 | 0.1 to 0.5
Cc1cc(C(C)CC(=O)O)ccc1-c1noc(-c2cn3cc(C(F)(F)F)cc(Cl)c3n2)n1 (centres unmarked) [Example 181, 3-(4-{5-[8-chloro-6-(trifluoromethyl)imidazo[1,2-a]pyridin-2-yl]-1,2,4-oxadiazol-3-yl}-3-methylphenyl)butanoic acid] | – | ≤ 0.1 | 0.1 to 0.5
CC(CC(=O)O)c1ccc(-c2noc(-c3cn4cc(C(F)(F)F)cc(Br)c4n3)n2)c(Cl)c1 (centres unmarked) [Example 266, 3-(4-{5-[8-bromo-6-(trifluoromethyl)imidazo[1,2-a]pyridin-2-yl]-1,2,4-oxadiazol-3-yl}-3-chlorophenyl)butanoic acid] | – | ≤ 0.1 | 0.1 to 0.5
Fc1ccc(-c2noc(-c3cn4cc(C(F)(F)F)cc(Cl)c4n3)n2)c(Cl)c1 [Example 274, 8-chloro-2-[3-(2-chloro-4-fluorophenyl)-1,2,4-oxadiazol-5-yl]-6-(trifluoromethyl)imidazo[1,2-a]pyridine] | – | 0.1 to 0.5 | 0.5 to 1
